Patent US8658424B2, “Myelinating oligodendrocyte precursor populations” (Wisconsin Alumni Research Foundation, priority 2007, dated 2014)
Entries after “also recorded” stand apart in the source; their conditions may differ.

Experiments:
Format in all cases: cell-based, human
[1] = tested on: hESC-derived neuroepithelial cells; experiment: Olig2 induction from hESC-derived neuroepithelial cells (immunostaining); settings: for Olig2-expressing progenitors: treatment during Olig2 induction, SHH 100 ng/ml, purmorphamine 1 μM, day 35
Procedure: hESCs (line H1 and H9; WiCell Research Institute; Madison, Wis.) were cultured on irradiated mouse embryonic fibroblasts (MEF) in a 6-well plate. […] Differentiated colonies were marked and removed physically with a pipette tip and the stem cell state was periodically monitored by expression of Oct4 and SSEA4.
hESCs were then differentiated to primitive neuroepithelial cells in an adherent colony culture for 10 days in a neural induction medium consisting of DMEM/F12, N2 supplement and non-essential amino acids, as detailed elsewhere. […] Chem. Soc. […] The neuroepithelial colonies were gently blown off the surface by a pipette and grown as floating clusters in suspension in the same medium.
(§1) Immuno-fluorescent staining on coverslip cultures and free-floating brain sections was described previously. […] Specificity of the antibodies was first tested in embryonic brain and spinal cord tissues. Li et al., supra; and Pankratz et al., supra. Negative controls without primary and secondary antibody were performed in all experiments to monitor non-specific staining. The stained samples were visualized with a Nikon TE600 fluorescent scope equipped with a SPOT camera and software (Diagnostic Instruments; Sterling Heights, Mich.), as well as a Nikon C1 laser scanning confocal microscope.
(§2) At least three coverslips were counted for every group. The experiments were repeated three times with different batches of cells.

[2] = tested on: hESC-derived Olig2 progenitors; experiment: Differentiation of Olig2 progenitors to OPCs in glial differentiation medium (marker immunostaining); settings: for OLIG2/PDGFRa double positive OPCs: day 100, treatment from Olig2 induction; for PDGFRα+ OPCs (in words): treated between days 24 and 35, later OPC differentiation; for timing of OPC differentiation (PDGFRα, NG2, Sox10): added to Olig2/Nkx2.2 progenitors in glial differentiation medium
Procedure: Olig2-expressing progenitors usually appeared around day 24 (Li et al., supra). […] FGF2 (R&D; 10 ng/ml) and/or EGF (Sigma; 10 ng/ml) was added to examine their effect on motor neuron differentiation and progenitor proliferation.
From the 5th week of differentiation, FGF2 was replaced with a cocktail of cytokines consisting of PDGFAA, IGF1 and NT3 (all at 10 ng/ml). Du Z, et al., “Induced expression of Olig2 is sufficient for oligodendrocyte specification but not for motoneuron specification and astrocyte repression,” Mol. Cellular Neurosci. […] SHH or purmorphamine was removed around 10 weeks when PDGFRα+ OPCs appeared. The cultures were fed every other day and the progenitor clusters were broken into smaller pieces with polished glass Pasteur pipette every week.
as §1, §2

[3] = tested on: hESC-derived Olig2 progenitors; experiment: Olig2/Nkx2.2 co-expression in Olig2 progenitors (immunostaining); settings: for OLIG2+/NKX2.2+ population: gliogenic progenitors treated day 35 to 50 (purmorphamine 1 uM, cyclopamine 5 μM), examined day 50; for cells expressing Olig2 and/or Nkx2.2: treated day 24 to 35, examined day 35
Text: (§3) Olig2-expressing progenitors usually appeared around day 24 (Li et al., supra). The culture was then switched to a glial differentiation medium (modified Bottenstein-Sato medium; see, Bottenstein J, et al., “The growth of cells in serum-free hormone-supplemented media,” Methods Enzymol. 58:94-109 (1979); and Bottenstein J, et al., “Selective survival of neurons from chick embryo sensory ganglionic dissociates utilizing serum-free supplemented medium,” Exp. Cell Res. 125:183-190 (1980)) consisting of DMEM, N1 supplement (Sigma; St. Louis, Mo.), T3 (Sigma); 60 ng/ml), biotin (Sigma; 100 ng/ml) and cAMP (Sigma; 1 uM). FGF2 (R&D; 10 ng/ml) and/or EGF (Sigma; 10 ng/ml) was added to examine their effect on motor neuron differentiation and progenitor proliferation.
(§4) Immuno-fluorescent staining on coverslip cultures and free-floating brain sections was described previously. Zhang et al. (2001), supra; Pankratz et al., supra. The following primary antibodies were used in the present study: anti-Olig2 (goat IgG, 1:500, sc-19969, Santa Cruz Biotechnology; Santa Cruz, Calif.), anti-βIII-tubulin (TuJ1, mlgG 1:5000, Sigma), anti-GFAP (mlgG 1:5000, Chemicon), anti-NG2 (mlgG 1:400, BD Pharmingen), anti-HB9 (mlgG 1:50, DSHB, Iowa City, Iowa), anti-PDGFRα (rat IgG 1:1000, gift from Dr. Stallcup WILLIAM STALLCUP, Burnham Institute for Medical Research, burnham.org/default.asp?contentID=203 on the World Wide Web) (Nishiyama A, et al., “Colocalization of NG2 proteoglycan and PDGF alpha-receptor on O2A progenitor cells in the developing rat brain,” J. Neurosci. Res. 43:299-314 (1996)), anti-O4 (1:50, mouse IgM, Chemincon MAB345), MBP (1:500, rabbit IgG, Chemicon), anti-human nuclei (1:200, mouse IgG, Chemicon). Specificity of the antibodies was first tested in embryonic brain and spinal cord tissues. Li et al., supra; and Pankratz et al., supra. Negative controls without primary and secondary antibody were performed in all experiments to monitor non-specific staining. The stained samples were visualized with a Nikon TE600 fluorescent scope equipped with a SPOT camera and software (Diagnostic Instruments; Sterling Heights, Mich.), as well as a Nikon C1 laser scanning confocal microscope.
(§5) For quantification of stained cell populations, optical fields were randomly selected with fixed ROI (region of interest) frame using cell counter plugin of ImageJ (Abramoff M, et al., “Image Processing with ImageJ,” Biophoton. Int. 11:36-42 (2004)) from independent coverslips of the same group. At least three coverslips were counted for every group. The experiments were repeated three times with different batches of cells. Statistical analyses were performed using ANOVA with R (R_Development_Core_Team, 2007).
Continued SHH signaling was required for maintaining gliogenic Olig2 progenitors. Gliogenic Olig2 progenitor cultures (day 35) were grown in the presence or absence of purmorphamine (1 uM), or the presence of cyclopamine (5 μM) for 2 weeks. […] Thus, SHH signaling was continuously needed to maintain the Olig2 progenitors, even though exogenous SHH is now not necessary.

[4] = tested on: hESC-derived Olig2 progenitors; experiment: Motor neuron differentiation of Olig2 progenitors (HB9 and Olig2 immunostaining); settings: for cells expressing HB9: day 35, cultures with purmorphamine from day 24, with or without FGF2 10 ng/ml; for HB9 expression: day 24 to 35, combined with purmorphamine, FGF2 or EGF 10 ng/ml
Text: as §3, §4, §5
FGF2 (10 ng/ml) was applied to the culture alongside purmorphamine at day 24 (following the appearance of Olig2, but before the differentiation of HB9+ motor neurons). […] Li et al., supra; and Li X & Zhang S, “In vitro differentiation of neural precursors from human embryonic stem cells,” Methods Mol. Biol. 331:169-177 (2006). […] Accordingly, a much larger population (55%) of Olig2 cells was present when FGF2 was present early on. RT-PCR analyses confirmed that Ngn2 and HB9 expression was repressed. Cultures with FGF2 alone (without the presence of SHH or purmorphamine) had few, if any, HB9+ motor neurons or Olig2-expressing progenitors (see FIGS. 4B, C).

[5] = tested on: hESC-derived Olig2 progenitors; experiment: Progenitor proliferation (Ki67 positive cells); settings: 10 ng/ml, day 24 to 35
Text: as §3
To determine pro-proliferation effects of FGF2, we used another mitogen, EGF, as a control. […] Thus, FGF2 appeared to increase the Olig2+ cells by preventing the differentiation of Olig2 progenitors to motor neurons.

[6] = tested on: hESC-derived Olig2 progenitors; experiment: Differentiation of Olig2 progenitors to OPCs in glial differentiation medium (marker immunostaining); settings: progenitors cultured in the presence of FGF2 throughout; 13-14 weeks
[7] = tested on: hESC-derived Olig2 progenitors; experiment: FACS analysis of OLIG2+ population; settings: day 50, with FGF2 versus without FGF2
[8] = tested on: hESC-derived Olig2 progenitors; experiment: RT-PCR gene expression in progenitor cultures

## CC1=C2C[C@H]3[C@@H](CC=C4C[C@@H](O)CC[C@@]43C)[C@@H]2CC[C@]12O[C@@H]1C[C@H](C)CN[C@H]1[C@H]2C [cyclopamine]
[1]
  Olig2-expressing progenitors: rarely; also recorded: blocked Olig2 transcription; also recorded: near absence of Olig2 cells
[2]
  OLIG2/PDGFRa double positive OPCs: rarely; also recorded: lack of OPCs
  PDGFRα+ OPCs (in words): few OPCs were present
[3]
  OLIG2+/NKX2.2+ population: not and few cells expressing Olig2 and/or Nkx2.2
  cells expressing Olig2 and/or Nkx2.2: near complete lack of cells expressing Olig2 and/or Nkx2.2

## c1ccc2c(Oc3nc(Nc4ccc(N5CCOCC5)cc4)c4ncn(C5CCCCC5)c4n3)cccc2c1 [purmorphamine]
[1]
  concentration that produced the highest proportion of Olig2 progenitors: 1 µM
  Olig2-expressing progenitors: present
[1]; purmorphamine 1 uM replacing SHH, p<0.0001
  induction of Olig2 compared with SHH: earlier and more potent induction of Olig2
[1]; purmorphamine versus SHH
  earlier induction of Olig2 expression than SHH: 4 to 5 days
[2]
  timing of OPC differentiation (PDGFRα, NG2, Sox10): did not speed up the differentiation of OPCs
  OLIG2/PDGFRa double positive OPCs: present
[2]; treated day 35 to 50, examined day 100
  PDGFRα+ OPCs: appear
[4]
  cells expressing HB9: 40-50%
[3]
  OLIG2+/NKX2.2+ population: present
  cells expressing Olig2 and/or Nkx2.2: co-express; also recorded: sustained Olig2 progenitor population
[3]; purmorphamine 1 uM day 35 to 50, day 50, printed comparator: cultures with cyclopamine
  more Olig2/Nkx2.2 double positive cells: about 40%

## EGF: mitogen used as a control for FGF2 (Sigma)
[2]
  timing of OPC differentiation (PDGFRα, NG2, Sox10): did not speed up the differentiation of OPCs
[5]
  proportion of Ki67 positive cells: does not selectively alter; also recorded: did not increase
[4]; EGF 10 ng/ml, day 24 to 35
  proportion of Olig2 positive cells: did not increase
[4]
  HB9 expression: moderately decreases

## FGF2: Fibroblast Growth Factor 2 (R&D)
[6]
  GFAP+ astrocytes: 35%
  PDGFRa+ OPCs: 4%
  βIII tubulin+ neurons: 53%
[2]; FGF2 with purmorphamine days 24-35 versus purmorphamine alone
  total cells generated: substantially more total cells
[2]
  timing of OPC differentiation (PDGFRα, NG2, Sox10): did not speed up the differentiation of OPCs
  PDGFRα+ OPCs (in words): similar
[7]
  decrease in the OLIG2+ population (FACS): 10%
[8]; FGF2 10 ng/ml with purmorphamine, day 24 to 35
  Ngn2 and HB9 expression (RT-PCR): repressed
[8]; FGF2 from day 35
  expression of NFIA (RT-PCR): promoted the expression of NFIA
[8]; FGF2 from day 35 in presence of purmorphamine
  expression of Olig2 (RT-PCR): compromises the effect of purmorphamine to maintain expression of Olig2
[8]; day 50, FGF2 from day 35
  SHH transcript (quantitative RT-PCR): decreases SHH by half
  transcription of GLI2 and GLI3 (quantitative RT-PCR): increases
[5]
  proportion of Ki67 positive cells: does not selectively alter
[4]; FGF2 10 ng/ml with purmorphamine from day 24, day 35
  population of Olig2 cells: 55%
[4]; FGF2 alone, without SHH or purmorphamine
  HB9+ motor neurons or Olig2-expressing progenitors: few, if any
[4]; FGF2 removed at day 35 and RA added back, one to two weeks later
  HB9-expressing cells: hardly any
[4]
  HB9 expression: blocks HB9 expression; also recorded: nearly completely blocked HB9 expression
  cells expressing HB9: less than 5%
[4]; with presence of Pur, 12 days from day 24
  increase of OLIG2+ cells: about 50%
[3]; FGF2 continued from day 35, 7th week
  Nkx2.2 progenitors: did not appear to change significantly
[3]; FGF2 continued from day 35, examined day 50 (7th week)
  Olig2/Nkx2.2 double positive cells: decreased; also recorded: few double positive cells

## sonic hedgehog [SHH]
[1]; one week following SHH treatment
  onset of Olig2 expression: ~23 day of differentiation
[1]
  Olig2-expressing progenitors: present
[2]
  timing of OPC differentiation (PDGFRα, NG2, Sox10): did not speed up the differentiation of OPCs
  OLIG2/PDGFRa double positive OPCs: present
[3]
  cells expressing Olig2 and/or Nkx2.2: co-express; also recorded: sustained Olig2 progenitor population

B1: Noggin: a BMP antagonist known to promote OPC differentiation (protein, UniProt Q13253 28-232, looked up)
Noggin: QHYLHIRPAPSDNLPLVDLIEHPDPIFDPKEKDLNETLLRSLLGGHYDPGFMATSPPEDRPGGGGGAAGGAEDLAELDQLLRQRPSGAMPSEIKGLEFSEGLAQGKKQRLSKKLRRKLQMWLWSQTFCPVLYAWNDLGSRFWPRYVKVGSCFSKRSCSVPEGMVCKPSKSVHLTVLRWRCQRRGGQRCGWIPIQYPIISECKCSC
[2]; Noggin 100 ng/ml at day 35 together with SHH 100 ng/ml
  timing of OPC differentiation: did not result in earlier differentiation of OPCs
